Test systems include Staphylococcus aureus; Escherichia coli; Bacillus cereus; Escherichia coli UB1005; Acinetobacter baumannii; Klebsiella pneumoniae.
What all share (test): ≥ marks a high value that may be exact or a test limit, other limits are often not marked, values filed in µg/mL are converted to µM
The test system of assay [1] is Staphylococcus aureus USA 300.
Assay [2] has as its system Salmonella enterica subsp. enterica serovar Pullorum C79-13.
Assay [3] deals with Salmonella enterica subsp. enterica serovar Typhimurium C77-31.
Assay [4] relates to Staphylococcus epidermidis ATCC 12228.
For assay [5], the system named is Enterococcus faecalis ATCC 29212.
The test system of assay [6] is Pseudomonas aeruginosa ATCC 27853.
Assay [7] relates to Salmonella enterica subsp. enterica serovar Typhimurium ATCC 14028.
In assay [8] the test system is Escherichia coli ATCC 25922.
For assay [9], the system named is Staphylococcus aureus ATCC 25923.
Assay [10] concerns Klebsiella pneumoniae ATCC 13883.
Assay [11] concerns Staphylococcus aureus ATCC 29213.
Assay [12] relates to Acinetobacter baumannii ATCC 19606.
In assay [13] the test system is Pseudomonas aeruginosa PAO1.

The text below walks through data of DBAASP.

The structures appear in SMILES notation. In brackets after ≈: the same amount, converted by molar mass. Several values for one entry are separate records, joined by “and”; a condition that tells them apart may be missing. Equal values may be shown once.

As for `CC(C)C[C@H](NC(=O)[C@@H](N)Cc1ccccc1)C(=O)NCC(=O)N[C@@H](CCCCN)C(=O)N[C@H](C(=O)N[C@@H](Cc1ccccc1)C(=O)N[C@@H](CCCCN)C(=O)N[C@@H](CCCCN)C(=O)N[C@@H](C)C(=O)N[C@H](C(=O)N[C@@H](CCCCN)C(=O)N[C@H](C(=O)N[C@@H](Cc1ccccc1)C(=O)N1CCC[C@H]1C(=O)N[C@@H](C)C(=O)N[C@H](C(=O)N[C@@H](Cc1ccccc1)C(=O)NCC(=O)N[C@@H](CCCCN)C(=O)N[C@H](C(=O)O)C(C)C)C(C)C)C(C)C)C(C)C)C(C)C` [FLGKVFKKAVKVFPAVFGKV], the MIC – broadly, the lowest concentration that inhibits growth of the organism – was 116 µM (≈ 256 µg/mL) against Staphylococcus aureus, 14.5 µM (≈ 32 µg/mL) with Escherichia coli and no less than 116 µM against Bacillus cereus.

In [1], `CC[C@H](C)[C@H](NC(=O)[C@H](CCCN=C(N)N)NC(=O)[C@H](CCC(N)=O)NC(=O)[C@@H](NC(=O)[C@@H](NC(=O)[C@H](CCC(N)=O)NC(=O)[C@H](CCC(N)=O)NC(=O)[C@H](Cc1ccccc1)NC(=O)CN)[C@@H](C)CC)C(C)C)C(=O)N[C@@H](CCCCN)C(=O)N[C@@H](CC(=O)O)C(=O)N[C@@H](Cc1ccccc1)C(=O)N[C@@H](CC(C)C)C(=O)N[C@@H](CCC(N)=O)C(=O)N[C@@H](CC(N)=O)C(=O)N[C@@H](CC(C)C)C(=O)N[C@H](C(N)=O)C(C)C` [GFQQIVQRIKDFLQNLV] gave an MIC of 12.5 µM (≈ 25.6 µg/mL).

As for `CC[C@H](C)[C@H](NC(=O)[C@H](CCCCN)NC(=O)[C@H](CCCN=C(N)N)NC(=O)[C@H](CC(C)C)NC(=O)[C@H](Cc1ccccc1)NC(=O)[C@H](CCCN=C(N)N)NC(=O)CNC(=O)[C@H](Cc1ccccc1)NC(=O)[C@@H](N)CCCN=C(N)N)C(=O)N[C@@H](CCCN=C(N)N)C(=O)N[C@@H](CCCN=C(N)N)C(=O)N[C@@H](Cc1ccccc1)C(=O)N[C@@H](CCCN=C(N)N)C(=O)N1CCC[C@H]1C(=O)N[C@@H](CCCCN)C(N)=O` [RFGRFLRKIRRFRPK], the MIC in assay [2] is 16 µM (≈ 32.5 µg/mL); in assay [3] it was no less than 32 µM; in assay [4], 16 µM (≈ 32.5 µg/mL); in assay [5], 16 µM (≈ 32.5 µg/mL); in [6], 32 µM (≈ 65 µg/mL); against Escherichia coli UB1005, 16 µM (≈ 32.5 µg/mL). For the same molecule, the minimum inhibitory concentration (MIC) in assay [7] came to 32 µM (≈ 65 µg/mL).

On to `CC(C)C[C@H](NC(=O)[C@H](CCCN=C(N)N)NC(=O)[C@H](CCCN=C(N)N)NC(=O)[C@H](C)NC(=O)[C@H](Cc1c[nH]c2ccccc12)NC(=O)CNC(=O)[C@H](CCCN=C(N)N)NC(=O)[C@@H](N)CCCN=C(N)N)C(=O)N[C@H](C(=O)N[C@@H](Cc1ccccc1)C(=O)N[C@@H](C)C(=O)N[C@@H](Cc1ccccc1)C(=O)NCC(=O)N[C@@H](CCCN=C(N)N)C(=O)N[C@@H](CCCN=C(N)N)C(N)=O)C(C)C` [RRGWARRLVFAFGRR], for which the MIC was 15.1 µM and 26.6 µM in [8]; greater than 30 µM in assay [9]; 3.2 µM (≈ 6.09 µg/mL) against Acinetobacter baumannii; 30 µM (≈ 57.1 µg/mL) in [10]; 1.3 µM (≈ 2.47 µg/mL) with Klebsiella pneumoniae.

On to `CC[C@H](C)[C@H](NC(=O)[C@H](CO)NC(=O)[C@H](CCC(N)=O)NC(=O)[C@H](CC(C)C)NC(=O)[C@H](C)NC(=O)[C@H](CC(=O)O)NC(=O)[C@H](CCCCN)NC(=O)[C@H](CCCCN)NC(=O)[C@H](CC(C)C)NC(=O)CN)C(=O)N[C@H](C(=O)N[C@@H](CCCCN)C(=O)N[C@@H](CCCCN)C(=O)N[C@@H](C)C(=O)N[C@@H](CCC(N)=O)C(=O)N[C@@H](CC(C)C)C(=O)N[C@@H](C)C(=O)N[C@@H](C)C(=O)N[C@@H](CCSC)C(=O)NCC(=O)O)C(C)C` [GLKKDALQSIVKKAQLAAMG], for which the MIC was greater than 124 µM in the assay with Escherichia coli and no less than 124 µM with Bacillus cereus.

Consider `CC(C)C[C@H](NC(=O)[C@@H](NC(=O)[C@@H](NC(=O)[C@@H](N)CC(C)C)C(C)C)[C@@H](C)O)C(=O)N[C@H](C(=O)N[C@@H](Cc1ccccc1)C(=O)N[C@H](C(=O)NCC(=O)NCC(=O)NCC(=O)N[C@@H](Cc1c[nH]c2ccccc12)C(=O)N[C@@H](CCCCN)C(=O)N[C@@H](Cc1c[nH]c2ccccc12)C(=O)N[C@@H](CCCCN)C(=O)N[C@@H](Cc1c[nH]c2ccccc12)C(=O)N[C@@H](CCCCN)C(=O)N[C@@H](CC(N)=O)C(=O)NCC(=O)N[C@@H](CCCCN)C(=O)N[C@@H](Cc1c[nH]c2ccccc12)C(=O)N[C@@H](CCCCN)C(=O)N[C@@H](Cc1c[nH]c2ccccc12)C(=O)N[C@@H](CCCCN)C(=O)N[C@@H](Cc1c[nH]c2ccccc12)C(=O)O)C(C)C)C(C)C` [LVTLVFVGGGWKWKWKNGKWKWKW], for which the MIC in assay [2] was 16 µM (≈ 48.3 µg/mL); in assay [3] it was no less than 128 µM; in [4], 32 µM (≈ 96.6 µg/mL); in assay [11] it was 32 µM (≈ 96.6 µg/mL); in assay [5], 4 µM (≈ 12.1 µg/mL); in assay [8], 4 µM (≈ 12.1 µg/mL).

For `C[C@H](NC(=O)[C@@H]1CCCN1C(=O)CNC(=O)[C@H](CO)NC(=O)[C@H](CCCN=C(N)N)NC(=O)CNC(=O)[C@@H](NC(=O)[C@@H](N)Cc1cnc[nH]1)[C@@H](C)O)C(=O)N[C@H](C(=O)NCC(=O)N[C@@H](Cc1cnc[nH]1)C(=O)N[C@@H](CO)C(=O)NCC(=O)N[C@@H](Cc1cnc[nH]1)C(=O)N[C@@H](CO)C(=O)N[C@@H](CO)C(=O)N[C@H](C(=O)N[C@@H](Cc1cnc[nH]1)C(=O)NCC(=O)N[C@@H](CO)C(=O)O)[C@@H](C)O)[C@@H](C)O` [HTGRSGPATGHSGHSSTHGS], the MIC in the assay on Escherichia coli is greater than 134 µM; in the assay on Bacillus cereus, no less than 134 µM.

Regarding `CC(C)C[C@H](NC(=O)[C@H](CCCCN)NC(=O)[C@H](Cc1ccccc1)NC(=O)[C@@H](NC(=O)[C@@H](NC(=O)CNC(=O)[C@H](CC(C)C)NC(=O)[C@@H](N)Cc1ccccc1)C(C)C)C(C)C)C(=O)N[C@@H](C)C(=O)N[C@H](C(=O)N[C@@H](CCCCN)C(=O)N[C@H](C(=O)N[C@@H](Cc1ccccc1)C(=O)N1CCC[C@H]1C(=O)N[C@@H](C)C(=O)N[C@H](C(=O)N[C@@H](Cc1ccccc1)C(=O)NCC(=O)N[C@@H](CCCCN)C(=O)N[C@H](C(=O)O)C(C)C)C(C)C)C(C)C)C(C)C` [FLGVVFKLAVKVFPAVFGKV], the MIC is greater than 118 µM against Staphylococcus aureus, greater than 118 µM against Escherichia coli and no less than 118 µM with Bacillus cereus.

For the molecule `CC(C)C[C@H](NC(=O)[C@H](CCCN=C(N)N)NC(=O)[C@H](CCCN=C(N)N)NC(=O)[C@H](C)NC(=O)[C@H](Cc1c[nH]c2ccccc12)NC(=O)CNC(=O)[C@H](CCCN=C(N)N)NC(=O)[C@@H](N)CCCN=C(N)N)C(=O)N[C@@H](C)C(=O)N[C@@H](Cc1ccccc1)C(=O)N[C@@H](C)C(=O)N[C@@H](Cc1ccccc1)C(=O)N[C@@H](C)C(=O)N[C@@H](Cc1ccccc1)C(=O)NCC(=O)N[C@@H](CCCN=C(N)N)C(=O)N[C@@H](CCCN=C(N)N)C(N)=O` [RRGWARRLAFAFAFGRR], the MIC is 6.2 µM (≈ 13 µg/mL) in [12]; 2.5 µM and 5.2 µM in assay [13]; 26.3 µM and 30 µM in [9]; 1.5 µM (≈ 3.14 µg/mL) in assay [7]; 2.6 µM (≈ 5.44 µg/mL) in assay [10].

As for `CC(C)C[C@H](NC(=O)[C@H](CC(C)C)NC(=O)[C@H](CCCCN)NC(=O)[C@H](CC(C)C)NC(=O)CNC(=O)[C@H](CC(C)C)NC(=O)[C@H](CO)NC(=O)[C@H](CC(C)C)NC(=O)[C@H](CC(C)C)NC(=O)[C@H](CO)NC(=O)CNC(=O)[C@H](CC(C)C)NC(=O)[C@@H](N)CC(C)C)C(N)=O` [LLGSLLSLGLKLL], the MIC in assay [13] is greater than 25 µM; in assay [1], 1.6 µM (≈ 2.14 µg/mL); in [8], greater than 25 µM; in assay [10] it was 25 µM (≈ 33.5 µg/mL).

`CC[C@H](C)[C@H](NC(=O)[C@@H](NC(=O)[C@@H](NC(=O)[C@H](CO)NC(=O)[C@@H]1CCCN1C(=O)[C@H](CCCCN)NC(=O)CNC(=O)CNC(=O)[C@H](CCCCN)NC(=O)[C@@H](NC(=O)[C@H](CO)NC(=O)[C@H](Cc1ccccc1)NC(=O)[C@@H](N)C(C)C)C(C)C)C(C)C)C(C)C)C(=O)N[C@@H](CCCCN)C(=O)N[C@H](C(=O)N[C@H](C(=O)N[C@H](C(=O)N[C@@H](C)C(=O)N[C@@H](CO)C(=O)N[C@H](C(=O)O)[C@@H](C)O)C(C)C)C(C)C)C(C)C` [VFSVKGGKPSVVIKVVVAST]: the MIC was greater than 128 µM in the assay with Escherichia coli and no less than 128 µM in the assay on Bacillus cereus.

On to `CC(C)C[C@H](NC(=O)[C@@H](N)Cc1ccccc1)C(=O)NCC(=O)N[C@H](C(=O)N[C@H](C(=O)N[C@@H](Cc1ccccc1)C(=O)N[C@@H](CCCCN)C(=O)NCC(=O)N[C@@H](C)C(=O)N[C@@H](CO)C(=O)N[C@@H](CCCCN)C(=O)N[C@H](C(=O)N[C@@H](Cc1ccccc1)C(=O)N1CCC[C@H]1C(=O)N[C@@H](C)C(=O)N[C@H](C(=O)N[C@H](C(=O)NCC(=O)N[C@@H](CCCCN)C(=O)N[C@H](C(=O)O)C(C)C)C(C)C)C(C)C)C(C)C)C(C)C)C(C)C` [FLGVVFKGASKVFPAVVGKV], for which the MIC in the assay on Staphylococcus aureus was greater than 125 µM; in the assay on Escherichia coli, greater than 125 µM; in the assay with Bacillus cereus, no less than 125 µM.
